7 compounds from patent US20240043386A1, “Modulators of the Cystic Fibrosis Transmembrane Conductance Regulator Protein and Methods of Use” (AbbVie Global Enterprises Ltd., priority 2021, published 2024) can be followed below.

In the experiment the target is T1, F508del/F508del CFTR (Homo sapiens, UniProt P13569, DEL508-508).
T1 construct: cells isolated from CF patients with the homozygous mutation; endogenous in cells; host or cells: primary human bronchial epithelial (hBE) cells from CF patients homozygous for F508del
T1 sequence (P13569 with tags, fused parts or gaps DEL508-508): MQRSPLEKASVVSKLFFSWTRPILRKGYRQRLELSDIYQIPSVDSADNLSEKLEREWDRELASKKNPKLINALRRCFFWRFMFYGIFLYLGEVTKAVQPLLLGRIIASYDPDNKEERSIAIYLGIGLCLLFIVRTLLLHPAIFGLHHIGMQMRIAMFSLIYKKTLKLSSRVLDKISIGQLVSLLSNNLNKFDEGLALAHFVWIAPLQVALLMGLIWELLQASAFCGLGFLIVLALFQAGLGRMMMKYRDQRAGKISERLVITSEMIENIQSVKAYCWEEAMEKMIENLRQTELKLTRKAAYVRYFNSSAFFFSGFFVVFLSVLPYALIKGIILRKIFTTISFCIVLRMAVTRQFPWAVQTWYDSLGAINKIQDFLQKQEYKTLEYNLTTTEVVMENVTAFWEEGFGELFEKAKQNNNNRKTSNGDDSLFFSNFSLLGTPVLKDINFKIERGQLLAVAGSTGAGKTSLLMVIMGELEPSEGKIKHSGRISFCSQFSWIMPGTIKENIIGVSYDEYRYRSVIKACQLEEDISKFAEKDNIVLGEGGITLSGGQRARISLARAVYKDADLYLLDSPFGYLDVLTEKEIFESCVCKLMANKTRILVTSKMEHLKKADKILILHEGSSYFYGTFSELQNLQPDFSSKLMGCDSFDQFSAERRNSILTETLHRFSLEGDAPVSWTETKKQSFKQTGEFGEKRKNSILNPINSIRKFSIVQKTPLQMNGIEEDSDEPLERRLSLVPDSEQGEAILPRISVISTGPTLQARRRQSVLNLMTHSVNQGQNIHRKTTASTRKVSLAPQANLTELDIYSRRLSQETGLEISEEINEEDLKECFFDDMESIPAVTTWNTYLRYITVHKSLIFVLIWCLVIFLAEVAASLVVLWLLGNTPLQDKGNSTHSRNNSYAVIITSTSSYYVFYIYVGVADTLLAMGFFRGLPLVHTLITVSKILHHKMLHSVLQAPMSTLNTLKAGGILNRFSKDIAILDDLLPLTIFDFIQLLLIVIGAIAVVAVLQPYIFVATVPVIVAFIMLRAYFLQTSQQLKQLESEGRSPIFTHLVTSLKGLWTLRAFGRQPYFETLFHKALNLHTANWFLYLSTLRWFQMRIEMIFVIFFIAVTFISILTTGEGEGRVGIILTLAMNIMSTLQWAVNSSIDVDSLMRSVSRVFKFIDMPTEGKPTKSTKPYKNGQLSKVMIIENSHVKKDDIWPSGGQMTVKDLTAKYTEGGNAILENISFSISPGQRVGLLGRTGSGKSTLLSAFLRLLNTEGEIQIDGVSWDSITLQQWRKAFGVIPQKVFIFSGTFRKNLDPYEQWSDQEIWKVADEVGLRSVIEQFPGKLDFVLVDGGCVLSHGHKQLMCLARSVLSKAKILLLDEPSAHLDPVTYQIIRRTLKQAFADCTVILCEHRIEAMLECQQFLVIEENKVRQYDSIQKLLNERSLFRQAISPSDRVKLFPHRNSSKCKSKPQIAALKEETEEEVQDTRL
The experiment can be described thus: Trans-Epithelial Current Clamp (TECC) assay using primary human bronchial epithelial cells. The class given is cell-based. As to conditions: for Emax (% Dual): maximum percent activity relative to positive control (co-corrector 0.15 μM + potentiator 0.45 μM = 100%), primary hBE cells F508del/F508del; for EC50: primary hBE cells homozygous F508del/F508del, test C2 corrector with co-corrector and potentiator, 18-24 hours at 37° C., equivalent CFTR current (IEQ)/AUC. The source says: A cell-based assay was developed using the primary human bronchial epithelial cells (hBE cells) with F508del/F508del CFTR and other mutations.
Primary human bronchial epithelial (hBE) cells from CFTR patients with homozygous F508del/F508del mutation were expanded from 1×10^6 to 250×10^6 cells (Neuberger, T et al., 2011, Methods Mol Biol 741:39-54). For this purpose, cells isolated from CF patients with the homozygous mutation, procured from the CF center tissue procurement and cell culture core at the Marsico Lung Institute at UNC (Randell), the Cystic Fibrosis translational research center at McGill University (University), and Rosalind Franklin University Medical School (RFUMS) were seeded onto 24 well Corning (Cat #3378) filter plates that were coated with 3T3 conditioned media and grown at an air-liquid interface for 35 days using an Ultroser® G supplemented differentiation media. All the primary human bronchial epithelial cells were collected in accordance with institutional review board approval protocols. Apical surface mucus was removed 72 hours before the experiment by incubating the apical surface of the cells for 30 minutes with 3 mM dithiothreitol (DTT) prepared in Dulbecco's phosphate buffered saline (DPBS) with Ca^2+ and Mg^2+. This was followed with aspiration of the mucus from the apical surface along with DPBS. The apical surface was re-washed with phosphate buffered saline (PBS) incubated for 30 minutes followed with aspiration. These hBE cells were then incubated with the desired concentrations of the test C2 corrector compounds along with co-corrector, 4-[(2R,4R)-4-({[1-(2,2-difluoro-1,3-benzodioxol-5-yl)cyclopropyl]carbonyl}amino)-7-(difluoromethoxy)-3,4-dihydro-2H-chromen-2-yl]benzoic acid and potentiator, (5-{3-amino-5-[4-(trifluoromethoxy)benzene-1-sulfonyl]pyridin-2-yl}-1,3,4-oxadiazol-2-yl)methanol, for 18-24 hours at 37° C., 5% CO2. The desired concentrations of the correctors and potentiator compounds were prepared from the 10 mM stocks in differentiation media and were always applied on the basolateral side of the epithelial cells. We also used an assay format where a fixed concentration of potentiator was added chronically along with the corrector compounds. This chronic treatment with the potentiator helped eliminate any interaction that might happen with CFTR modulators (correctors and potentiators) and thereby determined the true efficacy of the modulator combinations reflective of clinical relevance.
The assay uses a Transepithelial Current Clamp (TECC) (Vu, C B et al., 2017; J Med Chem 60:458-473) instrument that can measure the functionality of the mutated channel by measuring the equivalent CFTR current (IEQ) generated by the polarized primary epithelial cells. We used a TECC-24 with a 24-channel electrode manifold allowing for the simultaneous measurement of the transepithelial voltage, VT, and transepithelial resistance, RT, under current clamp conditions, from 24 filters using a 24 well Costar filter plate. The design of the filters in the 24 well filter plates was exactly the same as the design of an individual Transwell filter used in the classical Ussing Chamber with a surface area of 0.33 cm^2. Each measured VT values were corrected for the electrode offset potential measured using buffer alone in a separate plate, and each measured RT values were then corrected for the combined solution series and empty filter resistances. The corrected VT and RT values were then used to calculate the equivalent current, IEQ using Ohm's law (IEQ=VT/RT). The area under the curve (AUC) for the time period between the forskolin peak IEQ response and at the time of bumetanide addition was also calculated using a one-third trapezoid method, in addition to calculating the IEQ. The assay was run in a 24-well format and all 24-wells were measured at the same time point giving a higher throughput for this assay. […]

In general, EC50 refers to the concentration needed to bring the measured effect to its halfway point.

Take `CCOc1cnc([C@H]2C[C@@]2(C(=O)NS(=O)(=O)c2cccc3nc(C)ccc23)c2cc(C)ccc2OC)cn1` (single isomer, unassigned) [Example 66]: the “Emax (% Dual)” value stood at 253 % Dual and the EC50 was 15.2 nM.

For `COc1ccc(C)cc1[C@]1(C(=O)NS(=O)(=O)c2cccc3nc(C)ccc23)C[C@@H]1c1cnc(C(C)C)cn1` (single isomer, unassigned) [Example 64], the “Emax (% Dual)” value is on record as 342 % Dual and the EC50 was found to be 33.7 nM.

In the case of `COc1ccc([C@H]2C[C@@]2(C(=O)NS(=O)(=O)c2cccc3nc(C)ccc23)c2cc(C)ccc2OC)c(OC)n1` (single isomer, unassigned) [Example 94], the “Emax (% Dual)” value worked out at 246 % Dual and the EC50 was found to be 7 nM.

For `CCOc1ncccc1[C@H]1C[C@@]1(C(=O)NS(=O)(=O)c1cccc2nc(C)ccc12)c1cc(C)ccc1OC` (single isomer, unassigned) [Example 71], the “Emax (% Dual)” value is 288 % Dual and the EC50 came to 11.3 nM.

With `COc1ccc(C)cc1[C@]1(C(=O)NS(=O)(=O)c2cccc3nc(C)ccc23)C[C@@H]1c1cnc(OC)c(C)n1` [Example 83, (1S,2S)-1-(2-methoxy-5-methylphenyl)-2-(5-methoxy-6-methylpyrazin-2-yl)-N-(2-methylquinoline-5-sulfonyl)cyclopropane-1-carboxamide], the “Emax (% Dual)” value was determined as 246 % Dual and the EC50 was 33.2 nM.

`COc1ccc(C)cc1[C@]1(C(=O)NS(=O)(=O)c2cccc3nc(C)ccc23)C[C@@H]1c1cnc(OC)c(OC)c1` [Example 104, (1S,2R)-2-(5,6-dimethoxypyridin-3-yl)-1-(2-methoxy-5-methylphenyl)-N-(2-methylquinoline-5-sulfonyl)cyclopropane-1-carboxamide]: the “Emax (% Dual)” value was 350 % Dual and the EC50 worked out at 3.8 nM.

For `COc1ccc(C)cc1[C@@]1(C(=O)NS(=O)(=O)c2cccc3nc(C)ccc23)CC1c1ccc(C)nc1` (stereo in doubt) [Example 10, (1R,2S)-1-(2-methoxy-5-methylphenyl)-2-(6-methylpyridin-3-yl)-N-(2-methylquinoline-5-sulfonyl)cyclopropane-1-carboxamide], the “Emax (% Dual)” value is reported as 194 % Dual and the EC50 came out at 804 nM.
